What was measured:
high-fat diet (HFD) mice [1] = experiment: Glycated hemoglobin (HbA1c) in HFD mice after 3 months of supplementation; assay type: in vivo; conditions: after three months of supplementation, FIG. 1e
Protocol: (§1) The high-fat diet (HFD, containing 60% fat by energy) mice at 8 weeks of age were divided into three groups: (1) non-supplement group (Con, n=5); (2) DHB supplement group (DHB, 100 mg/kg, n=5); […] VB12=100 mg/kg: 200 mg/kg, n=5). All mice were administered these things before each major meal for once daily (2 g/kg body weight) by gavage in normal saline solution for 3 months. Blood samples were collected from tail tips in a fasting state to measure serum VB 12, serum homocysteine, glucose, and serum holo-transcobalamin II (holo-TCII, a biologically active fraction for TCII receptors synthesis) and weighed the mice for 0th, 2th, 4th, 6th, 8th, 10th and 12th week. After 3 months of supplementation, glycated hemoglobin (HbA1c) was measured. Also, the insulin tolerance test was performed after 3 months of supplementation after subcutaneous injection of insulin (0.4 U/kg, 0.05 ml/10 g body weight) for 0, 30, 90 minutes. […] Elevated homocysteine was defined as > 15 µM/L. Vitamin B12 levels and holo-TCII were measured by using immunoassay analyzer to confirm the improvement in TCII receptors synthesis and VB12 levels. Serum homocysteine levels were measured using the chemiluminescent microparticle immunoassay to show the VB12 levels. HbA1c was determined with automated glycohemoglobin analyzer, which can indicate the effect of blood glucose control during the trial. […]

high-fat diet (HFD) mice [2] = experiment: Serum VB12 level in HFD mice (immunoassay analyzer); conditions: mouse, in vivo
Protocol: The high-fat diet (HFD, containing 60% fat by energy) mice at 8 weeks of age were divided into three groups: (1) non-supplement group (Con, n=5); (2) DHB supplement group (DHB, 100 mg/kg, n=5); (3) the combination of DHB and VB12 supplement group (DHB+VB12, DHB: VB12=100 mg/kg: 200 mg/kg, n=5). All mice were administered these things before each major meal for once daily (2 g/kg body weight) by gavage in normal saline solution for 3 months.
Blood samples were collected from tail tips in a fasting state to measure serum VB 12, serum homocysteine, glucose, and serum holo-transcobalamin II (holo-TCII, a biologically active fraction for TCII receptors synthesis) and weighed the mice for 0th, 2th, 4th, 6th, 8th, 10th and 12th week. After 3 months of supplementation, glycated hemoglobin (HbA1c) was measured. […] Elevated homocysteine was defined as > 15 µM/L. Vitamin B12 levels and holo-TCII were measured by using immunoassay analyzer to confirm the improvement in TCII receptors synthesis and VB12 levels. Serum homocysteine levels were measured using the chemiluminescent microparticle immunoassay to show the VB12 levels. HbA1c was determined with automated glycohemoglobin analyzer, which can indicate the effect of blood glucose control during the trial. […]

high-fat diet (HFD) mice [3] = experiment: Fasting blood glucose in HFD mice during 3 months of supplementation; assay type: in vivo; conditions: after three months (12th week), gavage once daily, FIG. 1a
Protocol: as §1

high-fat diet (HFD) mice [4] = experiment: Insulin tolerance test in HFD mice after 3 months of supplementation; assay type: in vivo; conditions: 90 minutes after subcutaneous insulin 0.4 U/kg, FIG. 1d
Protocol: as §1

Compound: COc1ccc2c(c1OC)CN1CCc3cc4c(cc3C1=C2)OCO4 [DHB, dihydroberberine]
- HbA1c level decreased compared to the control group (high-fat diet (HFD) mice [1]): about 20%
- serum total VB12 change (high-fat diet (HFD) mice [2]): significantly decreased
- blood glucose level decreased compared to the control group (high-fat diet (HFD) mice [3]): about 35%
- blood glucose level lower than control group in insulin tolerance test (high-fat diet (HFD) mice [4]): about 15%
